According to article PMC6916019, “In vitro anti-malarial efficacy of chalcones: cytotoxicity profile, mechanism of action and their effect on erythrocytes” (Malaria Journal, 2019):
Values after ≈ are worked out from the molar mass of the structure shown.

Columns and labels:
[1] = MTT cytotoxicity / cell viability assay; conditions: human
Protocol: Cytotoxicity of the compounds on mammalian cells were accomplished employing HeLa cell line (NCCS, Pune) cultured in DMEM supplemented with 10% FBS by the MTT (3-(4,5-dimethylthiazol-2-yl)-2,5-diphenyltetrazolium bromide) microenzymatic method with certain modifications [32]. Briefly, cells (10^4 cells/200 μL/well) were seeded into 96-well flat-bottom sterile tissue culture plates in complete medium. After 24 h of seeding, the test compounds at different dilutions were added and kept for another 24 h in a humidified chamber with 5% CO2 at 37 °C. Twenty microlitres of MTT (5.00 mg/mL in 1XPBS) stock solution were pipetted into each well, mixed and incubated for at least 3–4 h. After incubation, the plates were centrifuged at 1500 rpm for 5 min. The supernatant was disposed cautiously and 100 μL of DMSO were added to each well to lyse the cell and dissolve the insoluble purple formazan product into a coloured solution. Absorbance was taken at 570 nm to determine formazan formation as a measurement of cell viability. Experiments were performed in triplicate.

[2] = tested on: P. falciparum chloroquine sensitive strain (MRC-2); assay: microbe, parasite or virus in culture; conditions: Plasmodium falciparum, 24 h
Protocol: These strains were perpetuated in vitro in continuous culture according to the method of Trager and Jensen with slight modifications. Briefly, both sensitive and resistant strains of P. falciparum were maintained in A+ erythrocytes in RPMI-1640 medium (having glutamine, but without any sodium bicarbonate) comprising 1.00 g of dextrose, 5.94 g of HEPES buffer, 40.00 mg of gentamycin. Additionally supplemented with 5% sodium bicarbonate and 10% (v/v) inactivated human AB+ serum then incubated in gas mixture of 5% CO2, 5% O2 and 90% N2 at 37 °C. Parasitized erythrocytes at initial 5% haematocrit were suspended in above mentioned culture medium and parasitaemia was regularly checked to maintain level between 2 and 4% with further sub-culturing for parasitaemia beyond 5%. Growth and multiplication of parasite was monitored by microscopy using Giemsa-stained slides.
To obtain ring stages of the parasite, the cultures were synchronized using D-sorbitol. The cultures, with majority of ring stages, were treated with equal volume of aqueous 5% D-sorbitol for 5 min and then after centrifugation pellet were suspended in complete medium and fresh erythrocytes synchronized culture with 1% parasitaemia and 5% haematocrit were used for compound concentration response assay.
The concentration of each test compound needed to hinder multiplication of parasites by 50% (IC50) against P. falciparum strains were obtained through concentration response assay performed in 96-well sterile tissue culture plates. Synchronized parasite cultures were applied to different doses of each compound. Dilutions were performed in gentamycin-free culture medium, and incubated at 37 °C having gaseous mixture (5% CO2, 5% O2 and 90% N2) supply for 24 h. The results were expressed as IC50 values computed from HN-NonLin Regression analysis, as well as mean percentage inhibition ± standard error examined by thick smear Giemsa stained slides. %ParasiteInhibition29,30=100-TotalnumberofSchizontsintestwells/TotalnumberofSchizontsincontrolwell∗100
Parasite at ring stage was used for compound concentration response assay with parasitaemia of 1% at 5% haematocrit. […] The IC50 and IC90 values of all compounds were determined and the resistance index between the two sensitive and resistant strains was calculated (Table 2). […] The percentage inhibition in schizont maturation was also calculated after incubation of ring stage P. falciparum till 24 h at the same range of drug concentrations (Table 3).

[3] = tested on: haemozoin (β-haematin) production in P. falciparum cultures; assay: Haemozoin inhibition assay in P. falciparum cultures; assay type: cell-based, Plasmodium falciparum; conditions: drug near IC50 concentration, 48 h, untreated control 547.61 ± 9.52
Protocol: Briefly, the test cultures were centrifuged for 5–10 min at 1300 rpm to dispose of the culture medium. Infected erythrocyte pellet (mingled of β-haematin and erythrocyte membrane) were exposed to 0.01% saponin lysis for 10 min at 25 °C to lyse erythrocyte to release parasites. […] The haemozoin content was quantified by taking the absorbance at 400 nm and using a standard curve prepared from β-haematin. The amount of haemozoin formed in relation to control was calculated. All assays were performed in triplicate.

[4] = Haemolysis assay on normal erythrocytes
Protocol: Briefly, fresh erythrocytes were centrifuged for 5 min at 1600 rpm for at least thrice in PBS and then the remaining pellet was re-suspended in PBS at 2% hematocrit. One hundred microlitres of this suspended pellet was added to 96-well sterile culture plate having test compounds at different desired concentrations. PBS alone (for baseline values) and 0.4% Triton X-100 in PBS (for 100% haemolysis) were employed as controls. After keeping at 37 °C for 3 h, the test samples were centrifuged and the supernatant was used for determination of the haemolytic activity quantified in terms of haemoglobin release as monitored spectrophotometrically by taking absorbance at 415 nm [33]. The experiment was done in triplicate and the mean ± SD was calculated [33, 34]. %Haemolysis=[Absorbanceofsample415nm-Absorbanceofblanksample415nm/Absorbanceofpositivecontrol415nm]∗100

IC50 ([2]; read-out: P. falciparum Chloroquine^s Strain (MRC-2) IC50): 0.17 µg/mL (≈ 0.531 µM)
IC90 ([2]; read-out: P. falciparum Chloroquine^s Strain (MRC-2) IC90): 1.14 µg/mL (≈ 3.56 µM)
SMILES: CCN(CC)CCCC(C)Nc1ccnc2cc(Cl)ccc12 (stereo not shown) [CHL, chloroquine, reference compound]
viability at 24 h, 12.5 µg/mL [1]: 58 ± 0.06%
inhibition at 6.25 µg/mL ([2]; read-out: % Schizont maturation inhibition ± SD (MRC-2)): 88.39 ± 0.71%
Amount of haemozoin production [3]: 359.52 ± 2.38 ng/mL
Amount of haemozoin production ([3]; listed as chloroquine): 359.52 ± 2.38 ng/mL
hemolysis at 3 h, 12.5 μg/mL [4]: 0.86 ± 0.001%
